The target of one experiment is T1, plasma kallikrein (Homo sapiens, UniProt P03952).
T1 construct: from tissue
Nature of the experiment: Neat human plasma assay, FXIIa contact pathway-activated, PFR-AMC substrate. Conditions: citrated human plasma 78% final, 10 nM human FXIIa, 100 μM PFR-AMC; read-out: Human Plasma Assay: IC90. The format is biochemical. On the procedure: To analyze inhibition of plasma kallikrein in an ex vivo setting, the potency of compounds was measure in contact pathway-activated plasma assays. In a fluorogenic peptide substrate assay, test compounds dissolved in DMSO were added to sodium citrate collected human or rat plasma in a 96-well microplate. Alternatively, citrated plasma was collected from rats administered the compounds orally or by IV. 10 nM of human FXIIa (Enzyme Research Laboratories) diluted in pKal buffer (20 mM Tris-HCl, pH 7.5, 150 mM NaCl, 1 mM EDTA, 0.1% PEG-8000, and 0.1% Triton X-100) was added to the plasma, followed by the 100 μM of the profluorescent, synthetic plasma kallikrein substrate PFR-AMC (also diluted in pKal buffer). Final plasma concentration in the reaction was 78%. Fluorescence was immediately monitored by excitation/emission wavelengths of 360 nm/480 nm respectively over a period of 5 minutes in a microplate reader. The resulting linear increase in fluorescence emission (reflecting pKal proteolysis of PFR-AMC substrate) was fit to extract a proteolytic rate (fluorescent units over time), and this rate was subsequently plotted against compound inhibitor concentration. Resulting plots were fit to a standard 4-parameter IC50/IC90 equation to determine min/max values, IC50/90, and slope. All experimental steps were performed at room temperature. Table 50 provides results of the assay.

The target in experiment [1] is human activated kallikrein enzyme (Homo sapiens, UniProt P03952). Description: Plasma kallikrein inhibition, fluorogenic PFR-AMC substrate, 500 pM activated kallikrein format. It is filed as biochemical. Conditions: 500 pM activated kallikrein, 300 uM PFR-AMC, 30 min preincubation, 10 min reaction; read-out: Primary Dose Response Assay: Average EC50. A digest of the protocol:
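Fluorescence (ex 380/em 460 nm) is read after 10 min of 300 uM PFR-AMC turnover by 500 pM enzyme at RT. Compounds sit with enzyme for 30 min beforehand. Buffer is Tris (pH 7.5) with EDTA, NaCl, PEG-400 and Triton X-100; EC50 values are banded.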

The structures appear in SMILES notation.

Chain of human activated kallikrein enzyme (P03952 391-638 limits assumed): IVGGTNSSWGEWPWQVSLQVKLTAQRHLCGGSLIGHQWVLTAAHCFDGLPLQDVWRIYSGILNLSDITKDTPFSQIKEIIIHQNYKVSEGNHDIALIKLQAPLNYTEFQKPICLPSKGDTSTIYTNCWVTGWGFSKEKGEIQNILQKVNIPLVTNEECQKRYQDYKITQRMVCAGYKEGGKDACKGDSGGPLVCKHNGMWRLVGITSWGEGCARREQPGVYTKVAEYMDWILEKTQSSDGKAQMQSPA
Chain of human activated kallikrein enzyme (P03952 20-390 partner limits assumed): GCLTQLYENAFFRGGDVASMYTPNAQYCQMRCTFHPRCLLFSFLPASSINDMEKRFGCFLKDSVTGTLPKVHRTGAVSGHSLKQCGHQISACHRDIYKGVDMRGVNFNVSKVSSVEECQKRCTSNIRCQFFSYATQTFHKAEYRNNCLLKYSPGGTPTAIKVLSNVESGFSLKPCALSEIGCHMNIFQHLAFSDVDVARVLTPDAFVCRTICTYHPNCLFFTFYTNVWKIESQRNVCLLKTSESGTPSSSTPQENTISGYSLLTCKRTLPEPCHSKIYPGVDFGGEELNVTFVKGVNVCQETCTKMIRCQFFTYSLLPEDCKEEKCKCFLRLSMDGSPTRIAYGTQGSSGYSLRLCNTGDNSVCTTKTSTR
T1 sequence (P03952 391-638 limits assumed): as the sequence (P03952 391-638 limits assumed) above
T1 sequence (P03952 20-390 partner limits assumed): as the sequence (P03952 20-390 partner limits assumed) above

Consider `Cc1ccnc([C@H]2C[C@@H]2C(=O)Nc2cc(NCc3cn4cc(C5CC5)cc(N5CC(=O)N(C)C5=O)c4n3)nc(CF)n2)n1` (racemic) [Example 353, rac-(1S*,2S*)—N-(6-(((6-cyclopropyl-8-(3-methyl-2,4-dioxoimidazolidin-1-yl)imidazo[1,2-a]pyridin-2-yl)methyl)amino)-2-(fluoromethyl)pyrimidin-4-yl)-2-(4-methylpyrimidin-2-yl)cyclopropane-1-carboxamide], for which, on plasma kallikrein, the IC90 lay in the range of 400 to 1500 nM. Moreover, in experiment [1], the EC50 is < 1 nM.
Consider `Cc1ccnc([C@H]2C[C@@H]2C(=O)Nc2cc(NCc3cn4cc(C5CC5)cc(N5CC(=O)N(C)C5=O)c4n3)nc(C)n2)n1` (racemic) [Example 366, rac-(1S*,2S*)-N-(6-(((6-cyclopropyl-8-(3-methyl-2,4-dioxoimidazolidin-1-yl)imidazo[1,2-a]pyridin-2-yl)methyl)amino)-2-methylpyrimidin-4-yl)-2-(4-methylpyrimidin-2-yl)cyclopropane-1-carboxamide], for which the IC90 at plasma kallikrein is < 400 nM. Further, the concentration for a half-maximal effect (EC50) in experiment [1] is < 1 nM.
Turning to `Cc1ccnc([C@H]2C[C@@H]2C(=O)Nc2cc(NCc3cn4cc(C5CC5)cc(-n5[nH]c(=O)n(C)c5=O)c4n3)ncn2)n1` (racemic) [Example 386, rac-(1S*,2S*)-N-(6-(((6-cyclopropyl-8-(4-methyl-3,5-dioxo-1,2,4-triazolidin-1-yl)imidazo[1,2-a]pyridin-2-yl)methyl)amino)pyrimidin-4-yl)-2-(4-methylpyrimidin-2-yl)cyclopropane-1-carboxamide], at plasma kallikrein, the IC90 lay within 1500 to 10000 nM. Besides, the EC50 in experiment [1] lay in the range of 1 to 10 nM.
On the same counts, the results for `Cc1ccnc([C@H]2C[C@@H]2C(=O)Nc2cc(N(C)Cc3cn4cc(C5CC5)cc(N5CC(=O)N(C)C5=O)c4n3)ncn2)n1` (racemic) [Example 387, rac-(1S*,2S*)-N-(6-(((6-cyclopropyl-8-(3-methyl-2,4-dioxoimidazolidin-1-yl)imidazo[1,2-a]pyridin-2-yl)methyl)(methyl)amino)pyrimidin-4-yl)-2-(4-methylpyrimidin-2-yl)cyclopropane-1-carboxamide] are < 400 nM and < 1 nM.
Regarding `Cc1ccnc([C@H]2C[C@@H]2C(=O)Nc2cc(NCc3cn4cc(C5CC5)cc(N5CC(=O)N(CC(F)(F)F)C5=O)c4n3)ncn2)n1` (racemic) [Example 388, rac-(1S*,2S*)-N-(6-(((6-cyclopropyl-8-(2,4-dioxo-3-(2,2,2-trifluoroethyl)imidazolidin-1-yl)imidazo[1,2-a]pyridin-2-yl)methyl)amino)pyrimidin-4-yl)-2-(4-methylpyrimidin-2-yl)cyclopropane-1-carboxamide], the IC90 at plasma kallikrein is 400 to 1500 nM. Further, the EC50 in experiment [1] is < 1 nM.
`Cc1ccnc([C@H]2C[C@@H]2C(=O)Nc2cc(NCc3cn4cc(C5CC5)cc(N5CCCC5=O)c4n3)ncn2)n1` (racemic) [Example 389, rac-(1S*,2S*)-N-(6-(((6-cyclopropyl-8-(2-oxopyrrolidin-1-yl)imidazo[1,2-a]pyridin-2-yl)methyl)amino)pyrimidin-4-yl)-2-(4-methylpyrimidin-2-yl)cyclopropane-1-carboxamide]: the IC90 on plasma kallikrein lay in the range of 400 to 1500 nM. In addition, the EC50 in experiment [1] was < 1 nM.
Turning to `Cc1ccnc([C@H]2C[C@@H]2C(=O)Nc2cc(NCc3cn4cc(C5CC5)cc(N5CCOC5=O)c4n3)ncn2)n1` (racemic) [Example 390, rac-(1S*,2S*)-N-(6-(((6-cyclopropyl-8-(2-oxooxazolidin-3-yl)imidazo[1,2-a]pyridin-2-yl)methyl)amino)pyrimidin-4-yl)-2-(4-methylpyrimidin-2-yl)cyclopropane-1-carboxamide], on plasma kallikrein, the IC90 was < 400 nM. For the same compound, in experiment [1], the EC50 was < 1 nM.
On the same counts, the results for `[2H]C([2H])(Nc1cc(NC(=O)[C@H]2C[C@@H]2c2nccc(C)n2)ncn1)c1cn2cc(C3CC3)cc(N3CC(=O)N(C)C3=O)c2n1` (racemic) [Example 391, rac-(1S*,2S*)-N-(6-(((6-cyclopropyl-8-(3-methyl-2,4-dioxoimidazolidin-1-yl)imidazo[1,2-a]pyridin-2-yl)methyl-d2)amino)pyrimidin-4-yl)-2-(4-methylpyrimidin-2-yl)cyclopropane-1-carboxamide] are < 400 nM and < 1 nM.
Turning to `Cc1ccnc([C@H]2C[C@@H]2C(=O)Nc2cc(NCc3cn4cc(C5CC5)cc(N5CC(=O)NC5=O)c4n3)ncn2)n1` (racemic) [Example 392, rac-(1S*,2S*)-N-(6-(((6-cyclopropyl-8-(2,4-dioxoimidazolidin-1-yl)imidazo[1,2-a]pyridin-2-yl)methyl)amino)pyrimidin-4-yl)-2-(4-methylpyrimidin-2-yl)cyclopropane-1-carboxamide], the IC90 on plasma kallikrein was 400 to 1500 nM. For the same compound, the EC50 in experiment [1] is < 1 nM.
For the compound `Cc1ccnc([C@H]2C[C@@H]2C(=O)Nc2cc(NCc3cn4cc(C5CC5)cc(N5CC(=O)N(C)C5=O)c4n3)ncn2)c1` (racemic) [Example 393, rac-(1S*,2S*)-N-(6-(((6-cyclopropyl-8-(3-methyl-2,4-dioxoimidazolidin-1-yl)imidazo[1,2-a]pyridin-2-yl)methyl)amino)pyrimidin-4-yl)-2-(4-methylpyridin-2-yl)cyclopropane-1-carboxamide], the IC90 on plasma kallikrein is 400 to 1500 nM. Besides, the concentration giving a half-maximal response (EC50) in experiment [1] is < 1 nM.
Take `Cc1ccnc([C@H]2C[C@@H]2C(=O)Nc2cc(NCc3cn4cc(C5CC5)cc(N5CC(=O)N(C)C5=O)c4n3)nc(C(F)F)n2)n1` (racemic) [Example 411, rac-(1S*,2S*)-N-(6-(((6-cyclopropyl-8-(3-methyl-2,4-dioxoimidazolidin-1-yl)imidazo[1,2-a]pyridin-2-yl)methyl)amino)-2-(difluoromethyl)pyrimidin-4-yl)-2-(4-methylpyrimidin-2-yl)cyclopropane-1-carboxamide]: the IC90 at plasma kallikrein was < 400 nM. The EC50 in experiment [1] is < 1 nM.
With `Cc1ccnc([C@H]2C[C@@H]2C(=O)Nc2ncnc(NCc3cn4cc(C5CC5)cc(N5CC(=O)N(C)C5=O)c4n3)c2F)n1` (racemic) [Example 412, rac-(1S*,2S*)-N-(6-(((6-cyclopropyl-8-(3-methyl-2,4-dioxoimidazolidin-1-yl)imidazo[1,2-a]pyridin-2-yl)methyl)amino)-5-fluoropyrimidin-4-yl)-2-(4-methylpyrimidin-2-yl)cyclopropane-1-carboxamide], on plasma kallikrein, the IC90 was in the range of 400 to 1500 nM. In addition, in experiment [1], the 50% effective concentration (EC50) fell in the range of 1 to 10 nM.
As to `Cc1ccnc([C@H]2C[C@@H]2C(=O)Nc2cc(NCc3cn4cc(C5CC5)ccc4n3)ccn2)n1` (racemic) [Example 414, rac-(1S*,2S*)-N-(4-(((6-cyclopropylimidazo[1,2-a]pyridin-2-yl)methyl)amino)pyridin-2-yl)-2-(4-methylpyrimidin-2-yl)cyclopropane-1-carboxamide], the IC90 at plasma kallikrein was 10000 to 48000 nM. For the same compound, the EC50 in experiment [1] is < 1 nM.
With `Cc1ccnc([C@H]2C[C@@H]2C(=O)Nc2cc(N[C@H](C)c3cn4cc(C5CC5)cc(N5C[C@@H]6C[C@@H]6C5=O)c4n3)ncn2)n1` (racemic) [Example 443, (1S,2S)—N-(6-(((R)-1-(6-cyclopropyl-8-((1R*,5S*)-2-oxo-3-azabicyclo[3.1.0]hexan-3-yl)imidazo[1,2-a]pyridin-2-yl)ethyl)amino)pyrimidin-4-yl)-2-(4-methylpyrimidin-2-yl)cyclopropane-1-carboxamide], on plasma kallikrein, the IC90 is < 400 nM. Further, the EC50 in experiment [1] was < 1 nM.
For the compound `Cc1csc([C@H]2C[C@@H]2C(=O)Nc2cc(NCc3cn4cc(C5CC5)cc(N5CC(=O)N(C)C5=O)c4n3)ncn2)n1` (racemic) [Example 446, rac-(1S*,2S*)—N-(6-(((6-cyclopropyl-8-(3-methyl-2,4-dioxoimidazolidin-1-yl)imidazo[1,2-a]pyridin-2-yl)methyl)amino)pyrimidin-4-yl)-2-(4-methylthiazol-2-yl)cyclopropane-1-carboxamide], the IC90 on plasma kallikrein was 400 to 1500 nM. Further, in experiment [1], the EC50 was < 1 nM.
Turning to `O=C(Nc1cc(NCc2cn3cc(C4CC4)cc(N4C[C@@H]5C[C@@H]5C4=O)c3n2)ncn1)[C@H]1C[C@@H]1c1cccc(Cl)c1` (racemic) [Example 457, rac-(1S,2S)-2-(3-chlorophenyl)-N-(6-(((6-cyclopropyl-8-((1R*,5S*)-2-oxo-3-azabicyclo[3.1.0]hexan-3-yl)imidazo[1,2-a]pyridin-2-yl)methyl)amino)pyrimidin-4-yl)cyclopropane-1-carboxamide], the IC90 on plasma kallikrein lay in the range of 400 to 1500 nM. Besides, the EC50 in experiment [1] was 1 to 10 nM.
For the compound `Cc1nc([C@H]2C[C@@H]2C(=O)Nc2cc(NCc3cn4cc(C5CC5)cc(N5CC(=O)N(C)C5=O)c4n3)ncn2)ncc1F` (racemic) [Example 489, rac-(1S*,2S*)—N-(6-(((6-cyclopropyl-8-(3-methyl-2,4-dioxoimidazolidin-1-yl)imidazo[1,2-a]pyridin-2-yl)methyl)amino)pyrimidin-4-yl)-2-(5-fluoro-4-methylpyrimidin-2-yl)cyclopropane-1-carboxamide], on plasma kallikrein, the concentration for an effect of 90% (IC90) fell in the range of 400 to 1500 nM. Further, the EC50 in experiment [1] is < 1 nM.

The values are drawn from US20240228488A1 (TAKEDA PHARMACEUTICAL COMPANY LIMITED, priority 2021, published 2024).
